Experimental data from PMC4003389, “Identification of pheromone components and their binding affinity to the odorant binding protein CcapOBP83a-2 of the Mediterranean fruit fly, Ceratitis capitata” (Insect Biochemistry and Molecular Biology, 2014).
Several values for one entry are separate records, joined by “and”; a condition that tells them apart may be missing. Equal values may be shown once. Read-outs that look alike come from different tables or passages of the source.

Experiments:
CcapOBP83a-2 [1] = biological target: T1, CcapOBP83a-2 (Ceratitis capitata, UniProt W8W3U3); test: biochemical; type: binding; details: for Ki: read-out: Ki (dissociation constant); for IC50: read-out: IC50 (concentration of ligand halving the initial fluorescence level)
Protocol: The 1-NPN/protein mixture was excited at 337 nm and the emission was recorded between 380 and 450 nm on a Perkin Elmer LS 55 Fluorescence spectrometer (Cambridge–UK) at 25 °C in a right angle configuration with a 1 cm light path quartz cuvette. The excitation and emission slits were both 5 nm. Data were recorded and graphed using FL WinLab Software (Perkin–Elmer). […] Analyses were performed by nonlinear regression curve fitting using GraphPad Prism 5 (GraphPad Software, Inc, La Jolla, USA).

[2] = test system: antennae of male and female C. capitata; test: Coupled GC–EAG of male volatile extract on medfly antennae; parameters: species or system Ceratitis capitata; details: for EAG response: number of females (F) that showed a positive EAG response: female antennae; for EAG response: number of females (F) that showed a positive EAG response / EAG response: number of males (M) that showed a positive EAG response: in a total of five replicates, GC–EAG; for EAG response: number of males (M) that showed a positive EAG response: male antennae; for electrophysiological (EAG) response, in words: GC–EAG of male volatile extract
Protocol: Electrical responses to chemical stimuli were recorded from the antennae of both sexes using 4 day-old virgin individuals. Electroantennogram (EAG) recordings were made with Ag–AgCl glass microelectrodes filled with Ringer solution (for 1 L H2O solution: 7.2 g NaCl, 0.37 g KCl, 0.17 g CaCl2, pH 7.3–7.4). The head of a fly (both male and female), anaesthetised by chilling, was excised from the body with a microscalpel and the tip of one of the two arista was cut off with micro-scissors. The indifferent electrode was inserted in the head (from the base to the top-frontal part) and the recording electrode was positioned over the cut arista. Signals were passed through a high impedance amplifier (UN-06, Hilversum, The Netherlands) and analysed using a customised software package (Syntech). […] The oven was maintained at 30 °C for 2 min and then programmed for increments at 5 °C min^−1 to 250 °C. The carrier gas was helium. Outputs from the EAG amplifier and the FID were monitored simultaneously and analysed using the Syntech software package. […] The stimulus (2 s duration) was delivered into a purified airstream (1 l/min) flowing continuously over the preparation using a stimulus controller (Syntech CS02). Samples (10 μl) of the standard solution of test compounds (1 mg/ml in redistilled hexane) were applied in the cartridge. The control stimulus was hexane (10 μl). Five replicates were performed for each sample using antennae from 5 different flies.

CcapOBP83a-2 [3] = biological target: T1, CcapOBP83a-2; test: Binding of fluorescent probe 1-NPN to CcapOBP83a-2 (fluorescence titration); details: for Kd: dissociation constant (KD) of 1-NPN, protein 2 μM, 20 mM Tris–HCl pH 7.4; for saturation level of 1-NPN: protein concentration ≈2 μM
Protocol: To measure the binding affinity of the fluorescent probe 1-NPN to CcapOBP83a-2, a 2 μM solution of protein in 20 mM Tris–HCl pH 7.4 was titrated with aliquots of 1 mM 1-NPN stock to a final concentration of 0.1–50 μM in methanol. The 1-NPN/protein mixture was excited at 337 nm and the emission was recorded between 380 and 450 nm on a Perkin Elmer LS 55 Fluorescence spectrometer (Cambridge–UK) at 25 °C in a right angle configuration with a 1 cm light path quartz cuvette. The excitation and emission slits were both 5 nm. Data were recorded and graphed using FL WinLab Software (Perkin–Elmer). The affinity of other ligands was measured in competitive binding assays, using 1-NPN as fluorescent reporter at 3 μM concentration and final concentrations of each competitor from 0.1 μM to 50 μM. To determine binding constants, the fluorescent intensity values at the maximum emission (after subtracting those measured without protein) were plotted against free ligand concentrations. […] IC50 values (the concentration of ligand halving the initial fluorescence level) were used to calculate each competitor dissociation constants (KD), by the equation: KD = IC50/1 + [1 − NPN]/K1-NPN, where [1 − NPN] is the free concentration of 1 − NPN and K1-NPN is the dissociation constant of the 1-NPN/protein complex. Analyses were performed by nonlinear regression curve fitting using GraphPad Prism 5 (GraphPad Software, Inc, La Jolla, USA).

[4] = first fraction, ligand 50 μM, 1-NPN 3 μM
[5] = second fraction, ligand 50 μM, 1-NPN 3 μM

T1 sequence (W8W3U3 entry or part of it): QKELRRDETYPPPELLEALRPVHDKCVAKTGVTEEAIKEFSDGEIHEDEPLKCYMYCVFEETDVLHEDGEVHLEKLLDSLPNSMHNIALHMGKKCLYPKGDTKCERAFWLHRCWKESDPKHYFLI

Structure (SMILES)	binding activity, in words (CcapOBP83a-2 [1]; first fraction)	Ki (CcapOBP83a-2 [1]; first fraction, 1-NPN 3 μM) [nM]	Int (end point fluorescent level): fluorescence intensity after the maximum quantity of chemical was added (CcapOBP83a-2 [1]; [4])	Ki (CcapOBP83a-2 [1]; second fraction, 1-NPN 3 μM)	Int (end point fluorescent level): fluorescence intensity after the maximum quantity of chemical was added (CcapOBP83a-2 [1]; [5])	EAG response: number of females (F) that showed a positive EAG response [2]	EAG response: number of males (M) that showed a positive EAG response [2]	IC50 (CcapOBP83a-2 [1]; second fraction, 1-NPN 3 μM) [nM]	electrophysiological (EAG) response, in words [2]	Kd (CcapOBP83a-2 [3]; first fraction of CcapOBP83a-2) [nM]	Kd (CcapOBP83a-2 [3]; second fraction of CcapOBP83a-2)	saturation level of 1-NPN (CcapOBP83a-2 [3]; first fraction) [µM]	saturation level of 1-NPN (CcapOBP83a-2 [3]; second fraction) [µM]	Int (end point fluorescent level): fluorescence intensity after the maximum quantity of chemical was added (CcapOBP83a-2 [1])
C=CC(=C)CC/C=C(\C)CCC=C(C)C [(E)-β-Farnesene, reference compound]	limited degree of binding	1400	75.1	200 nM	33.6	–	–	–	–	–	–	–	–	–
CCCC/C=C/CC(=O)OCC [Ethyl (E)-3-octenoate]	–	–	55.6	2410 nM	24.2	M4F4	M4F4	18000	–	–	–	–	–	–
CC1CCOC1=O (stereo not drawn) [Dihydro-3-methyl-2-(3H)-furanone]	–	–	66.5	–	58.1	4	3	–	–	–	–	–	–	–
C=CC(=C)CCC=C(C)C [Myrcene]	–	–	77.5	900 nM and 879 nM	39.6	4	0	10000	response only on the female antennae	–	–	–	–	–
c1ccc(Nc2cccc3ccccc23)cc1 [1-NPN, N-phenyl-1-naphthylamine]	–	–	–	–	–	–	–	–	–	10500 ± 1400	600 nM and 617 nM	10 to 20	5 to 10	–
CC(C)CCO [3-Methylbutan-1-ol]	–	–	–	–	–	M4F4	M4F4	–	–	–	–	–	–	63.4 and 55.6
CCCCCCCC(=O)OCC [Ethyl octanoate, reference compound]	–	–	66.3	2000 nM and 1960 nM	26.1	–	–	15000	–	–	–	–	–	–
C=C/C(C)=C/C/C=C(\C)CCC=C(C)C [(E,E)-α-Farnesene]	–	6560	34.3	100 nM and 133 nM	14.4	3	2	1200	small responses in both male and female flies	–	–	–	–	–
C=C/C(C)=C\CC=C(C)C [(Z)-Ocimene]	–	4520	49.9	1900 nM and 1890 nM	23.4	M4F4	M4F4	13500	–	–	–	–	–	–
CC/C=C/CC(=O)OCC [Ethyl (E)-3-hexenoate]	–	–	68.5	–	51.5	M4F4	M4F4	–	–	–	–	–	–	–
OC1COCC1O (stereo not drawn) [Tetrahydro-3,4-furandiol]	–	–	66.2	–	59.9	4	2	–	–	–	–	–	–	–
C[C@@H](O)[C@@H](C)O [(RR)-2,3-Butanediol]	–	–	62.9	–	58.3	3	2	–	–	–	–	–	–	–
C=CC(C)(O)CCC=C(C)C (racemic) [(RS)-Linalool]	–	–	66.6	6100 nM	44.7	3	4	41000	–	–	–	–	–	–
c1ccc2[nH]ccc2c1 [Indole]	–	–	66.2	–	60.1	M3F3	M3F3	–	–	–	–	–	–	–
C=CCc1ccc(OC)c(OC)c1 [Methyleugenol, reference compound]	–	–	61.9	4640 nM	46.0	–	–	43000	–	–	–	–	–	–
CC(=O)OC/C=C(\C)CCC=C(C)C [Geranyl acetate]	–	–	70.4	900 nM and 901 nM	17.4	4	5	6500	–	–	–	–	–	–
CCC(C)C(C)=O (racemic) [(RS)-3-Methylpentan-2-one]	–	–	65.3	–	58.3	3	0	–	response only on the female antennae	–	–	–	–	–
C=C/C(C)=C/CC=C(C)C [(E)-Ocimene]	–	–	66.3	8200 nM and 8170 nM	50.7	4	0	50000	response only on the female antennae	–	–	–	–	–
CC1CC(Cl)CCC1C(=O)OC(C)(C)C (stereo not drawn) [Trimedlure, t-Butyl-2-methyl-4-chlorocyclohexanecarboxylate, reference compound]	–	–	66.0	300 nM and 322 nM	9.8	–	–	2100	–	–	–	–	–	–
